Experimental data as given in patent publication US20190375778A1, “ADENOSINE DERIVATIVES FOR USE IN THE TREATMENT OF CANCER” (NuCana plc, priority 2016, published 2019).
Where two headings read alike, the source gives them in different places.

How the values were obtained:
Jurkat = experiment: CellTiterGlo viability assay, Jurkat; type: cell-based; details: Homo sapiens, read-out: IC50 Jurkat
Method: (§1) In vitro viability assay were performed to assess the effects of compounds on cell viability in selected cell lines over ˜72 hrs using the CellTiterGlo (CTG, Promega-G7573) assay. The tests were performed in duplicates with treatment of compounds at 9 points, 3.16 folds titration in 96 well plates over ˜72 hrs. The compound starting concentrations were 198 μM. Cell viability assay using CellTiterGlo in 96-well plate were performed. Compound treatment 72 hrs, standard growth conditions, duplicates. Compounds were dissolved to 40 mM with thawed […]. Compounds were serially diluted at 3.16 fold in thawed DMSO, and warmed to 37° C. before being dissolved in media (2 μl+200 μl). After compounds were dissolved in media, media containing compounds were warmed to 37° C. in incubator and then compounds in media were added to cell plates (50 μl+50 μl) in duplicates. The compounds' final concentrations were from […] to 19.9 nM. All compound solubilities were checked and recorded again, then the plates were transferred to CO2 tissue culture incubator immediately and incubated for 3 days. DMSO final concentration is 0.5%.

RPMI-8226 = experiment: CellTiterGlo viability assay, RPMI-8226; type: cell-based, Human; details: for IC50: read-out: IC50 RPMI-8226
Procedure, shortened: (§2)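 Cells were treated for about 72 hrs under standard growth conditions with compounds in a 9-point, 3.16-fold titration run in duplicate, with final concentrations from 198 μM down to 19.9 nM in 0.5% DMSO. Viability was then measured by CellTiterGlo.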

[1] = test system: KG1a leukaemic stem cell compartment (Lin−/CD34+/CD38−/CD123+); experiment: Leukaemic stem cell compartment in KG1a; type: cell-based; details: for Change relative to control (%): % LSC compartment versus the series' control; for KG-1a (CD34+/CD38−/CD123+) % compartment: LSC as percentage of viable cells left, 72 hrs
Method: A further comparative analysis of the toxicity of compounds in the KG1a cell line over an extended dose range was carried out, and the relative effect assessed of the compounds on the leukaemic stem cell compartment within the KG1a cell line, across the entire dose range. Thus, experimental tests were performed on certain compounds of the present invention to assess their ability to target cancer stem cells in a leukaemic cell line. The acute myeloid leukaemia (AML) cell line, KG1a, was employed to assess the relative effect of compounds on the stem cell compartment. The KG1a cell line was selected because it manifests a minor stem cell-like compartment with a distinct immunophenotype (Lin^−/CD34^+/CD38^−/CD123^+).
Cells of the KG1a cell line were maintained in RPMI medium (Invitrogen, Paisley, UK) supplemented with 100 units/ml penicillin, 100 μg/ml streptomycin and 20% foetal calf serum. Cells were subsequently aliquoted (10^5 cells/100 μl) into 96-well plates and were incubated at 37° C. in a humidified 5% carbon dioxide atmosphere for 72 hrs in the presence of nucleoside analogues and their respective nucleotide analogues (known as ProTides) at concentrations that were experimentally determined for each series of compounds. In addition, control cultures were carried out to which no drug was added. Cells were subsequently harvested by centrifugation and were analyzed by flow cytometry using the Annexin V assay.
KG1a cells were cultured for 72 hrs in the presence of a wide range of concentrations of each compound assayed. Cells were then harvested and labelled with a cocktail of anti-lineage antibodies (PE-cy7), anti-CD34 (FITC), anti-CD38 (PE) and anti-CD123 (PERCP cy5). The sub-population expressing a leukaemic stem cell (LSC) phenotype were subsequently identified and were expressed as a percentage of all viable cells left in the culture. The percentages of stem cells remaining were then plotted on a dose-response graph and the effects of the compounds were compared with 8-chloroadenosine.
The data obtained in these experiments were evaluated using one way ANOVA. All data was confirmed as Gaussian or a Gaussian approximation using the omnibus K2 test. LD50 values were calculated from the non-linear regression and line of best-fit analysis of the sigmoidal dose-response curves. All statistical analyses were performed using Graphpad Prism 6.0 software (Graphpad Software Inc., San Diego, Calif.).

KG-1 = experiment: CellTiterGlo viability assay, KG-1; type: cell-based; details: Homo sapiens, read-out: IC50 KG-1
Procedure, shortened: as §2

HL-60 = experiment: CellTiterGlo viability assay, HL-60; type: cell-based; details: for IC50: read-out: IC50 HL-60
Procedure, shortened: as §2

THP-1 = experiment: CellTiterGlo viability assay, THP-1; type: cell-based; details: Homo sapiens, read-out: IC50 THP-1
Method: as §1

HEL92.1.7 = experiment: CellTiterGlo viability assay, HEL92.1.7; type: cell-based; details: for IC50: read-out: IC50 HEL92.1.7
Procedure, shortened: as §2

NCI-H929 = experiment: CellTiterGlo viability assay, NCI-H929; type: cell-based; details: Homo sapiens, read-out: IC50 NCI-H929
Procedure, shortened: as §2

Z138 = experiment: CellTiterGlo viability assay, Z138; type: cell-based; details: for IC50: read-out: IC50 Z138
Method: as §1

HS445 = experiment: CellTiterGlo viability assay, HS445; type: cell-based; details: for IC50: read-out: IC50 HS445
Method: as §1

K562 = experiment: CellTiterGlo viability assay, K562; type: cell-based; details: for IC50: read-out: IC50 K562
Procedure, shortened: as §2

MCF7 = experiment: CellTiterGlo viability assay, MCF7; type: cell-based; details: for IC50: read-out: IC50 MCF7
Method: as §1

C[C@H](NP(=O)(OC[C@H]1O[C@@H](n2c(Cl)nc3c(N)ncnc32)C(O)C1O)Oc1cccc2ccccc12)C(=O)OCc1ccccc1 (stereo partly drawn) [Compound D, (2S)-Benzyl 2-(((((2R,3S,4R,5R)-5-(6-amino-8-chloro-9H-purin-9-yl)-3,4-dihydroxy-tetrahydrofuran-2-yl)methoxynaphthalene-1-yloxy)phosphoryl)amino)propanoate]
IC50 (Jurkat; 72 h): 0.1 to 5 µM | IC50 (RPMI-8226; Homo sapiens, RPMI-8226, 72 h): 0.1 to 5 µM | Change relative to control (%) [1]: −0.8% | KG-1a (CD34+/CD38−/CD123+) % compartment [1]: 2.5% | IC50 (KG-1; KG-1, 72 h): 5 to 15 µM | IC50 (HL-60; Homo sapiens, HL-60, 72 h): 5 to 15 µM | IC50 (THP-1; THP-1, 72 h): 0.1 to 5 µM | IC50 (HEL92.1.7; Homo sapiens, HEL 92.1.7, 72 h): 0.1 to 5 µM | IC50 (NCI-H929; NCI-H929, 72 h): 0.1 to 5 µM | IC50 (Z138; Homo sapiens, Z-138, 72 h): 0.1 to 5 µM | IC50 (HS445; Hs 445, 72 h): 5 to 15 µM | IC50 (K562; Homo sapiens, K562, 72 h): 0.1 to 5 µM | IC50 (MCF7; Homo sapiens, MCF7, 72 h): 0.1 to 5 µM

Nc1ncnc2c1nc(Cl)n2[C@@H]1O[C@H](COP(=O)(NCC(=O)OCc2ccccc2)Oc2ccccc2)[C@@H](O)[C@H]1O (mixture of isomers) [Compound B, Benzyl 2-(((((2R,3S,4R,5R)-5-(6-amino-8-chloro-9H-purin-9-yl)-3,4-dihydroxytetra-hydrofuran-2-yl)methoxy)(phenoxy)phosphoryl)amino)acetate]
IC50 (Jurkat; 72 h): 0.1 to 5 µM | IC50 (RPMI-8226; Homo sapiens, RPMI-8226, 72 h): 0.1 to 5 µM | targeting of leukaemic/cancer stem cells in words ([1]; KG1a, compared to 8-chloroadenosine (FIG. 2, FIG. 8)): particularly effective preferential targeting of LSCs | KG-1a (CD34+/CD38−/CD123+) % compartment [1]: 2.7% | IC50 (KG-1; KG-1, 72 h): 0.1 to 5 µM | IC50 (HL-60; Homo sapiens, HL-60, 72 h): 0.1 to 5 µM | IC50 (THP-1; THP-1, 72 h): 0.1 to 5 µM | IC50 (HEL92.1.7; Homo sapiens, HEL 92.1.7, 72 h): 0.1 to 5 µM | IC50 (NCI-H929; NCI-H929, 72 h): 5 to 15 µM | IC50 (Z138; Homo sapiens, Z-138, 72 h): 0.1 to 5 µM | IC50 (HS445; Hs 445, 72 h): 5 to 15 µM | IC50 (K562; Homo sapiens, K562, 72 h): 0.1 to 5 µM | IC50 (MCF7; Homo sapiens, MCF7, 72 h): 0.1 to 5 µM

Nc1ncnc2c1nc(Cl)n2[C@@H]1O[C@H](CO)[C@@H](O)[C@H]1O [8-chloroadenosine, 8-Chloroadenosine, reference compound]
IC50 (Jurkat; CellTiterGlo, 72 hrs): 0.1 to 5 µM | Top in. % RPMI-8226 (RPMI-8226): 96.2% | IC50 (RPMI-8226; Homo sapiens, RPMI-8226, CellTiterGlo, 72 hrs): 0.1 to 5 µM | EC50 (RPMI-8226; Homo sapiens, RPMI-8226, read-out: Ab EC50 (μM) RPMI-8226): 1.34 µM | Change relative to control (%) [1]: +0.4% | KG-1a (CD34+/CD38−/CD123+) % compartment [1]: 3.7% | IC50 (KG-1; KG-1, CellTiterGlo, 72 hrs): 0.1 to 5 µM | Top in. % HL-60 (HL-60): 97.1% | IC50 (HL-60; Homo sapiens, HL-60, CellTiterGlo, 72 hrs): 0.1 to 5 µM | EC50 (HL-60; Homo sapiens, HL-60, read-out: Ab EC50 (μM) HL-60): 10.2 µM | IC50 (THP-1; THP-1, CellTiterGlo, 72 hrs): 0.1 to 5 µM | Top in. % HEL92.1.7 (HEL92.1.7): 96.4% | IC50 (HEL92.1.7; Homo sapiens, HEL 92.1.7, CellTiterGlo, 72 hrs): 0.1 to 5 µM | EC50 (HEL92.1.7; Homo sapiens, HEL 92.1.7, read-out: Ab EC50 (μM) HEL92.1.7): 2.2 µM | IC50 (NCI-H929; NCI-H929, CellTiterGlo, 72 hrs): 0.1 to 5 µM | Top in. % Z-138 (Z138): 88.7% | IC50 (Z138; Homo sapiens, Z-138, CellTiterGlo, 72 hrs): 0.1 to 5 µM | EC50 (Z138; Homo sapiens, Z-138, read-out: Ab EC50 (μM) Z-138): 1.44 µM | Top in. % HS445 (HS445): 78.1% | IC50 (HS445; Hs 445, CellTiterGlo, 72 hrs): 5 to 15 µM | EC50 (HS445; Hs 445, read-out: Ab EC50 (μM) HS445): 4.5 µM | Top in. % K562 (K562): 82.0% | IC50 (K562; Homo sapiens, K562, CellTiterGlo, 72 hrs): 0.1 to 5 µM | EC50 (K562; Homo sapiens, K562, read-out: Ab EC50 (μM) K562): 11.8 µM | Top in. % MCF7 (MCF7): 79.6% | IC50 (MCF7; Homo sapiens, MCF7, CellTiterGlo, 72 hrs): 0.1 to 5 µM | EC50 (MCF7; Homo sapiens, MCF7, read-out: Ab EC50 (μM) MCF7): 1.33 µM

Nc1ncnc2c1nc(Cl)n2[C@@H]1O[C@H](COP(=O)(NCC(=O)OC2CCCCC2)Oc2ccccc2)[C@@H](O)[C@H]1O (mixture of isomers) [Compound A, Cyclohexyl 2-(((((2R,3S,4R,5R)-5-(6-amino-8-chloro-9H-purin-9-yl)-3,4-dihydroxy-tetrahydrofuran-2-yl)methoxy)(phenoxy)phosphoryl)amino)acetate]
IC50 (Jurkat; 72 h): 15 to 100 µM | IC50 (RPMI-8226; Homo sapiens, RPMI-8226, 72 h): 5 to 15 µM | IC50 (KG-1; KG-1, 72 h): > 100 µM | IC50 (HL-60; Homo sapiens, HL-60, 72 h): 5 to 15 µM | IC50 (THP-1; THP-1, 72 h): 15 to 100 µM | IC50 (HEL92.1.7; Homo sapiens, HEL 92.1.7, 72 h): 5 to 15 µM | IC50 (NCI-H929; NCI-H929, 72 h): 15 to 100 µM | IC50 (Z138; Homo sapiens, Z-138, 72 h): 0.1 to 5 µM | IC50 (HS445; Hs 445, 72 h): > 100 µM | IC50 (K562; Homo sapiens, K562, 72 h): 5 to 15 µM | IC50 (MCF7; Homo sapiens, MCF7, 72 h): 15 to 100 µM
